Assay results from patent US12435059B2, “AMP-activated protein kinase inhibitors and methods of making and using the same” (The Regents of the University of Colorado, priority 2019, dated 2025).
Read-outs that look alike come from different tables or passages of the source.

Assays:
Test in all cases: biochemical
Format in all cases: binding
468 kinases [1] = biological target: 468 kinases (Homo sapiens, UniProt P42336, I800L); details: PIK3CA(I800L); read-out: % Inhibition @ 100 nM
468 kinases [2] = biological target: 468 kinases (Homo sapiens, UniProt Q9BWU1); details: CDK11; read-out: % Inhibition @ 100 nM
468 kinases [3] = biological target: 468 kinases (Homo sapiens, UniProt P15735); details: PHKG2; read-out: % Inhibition @ 100 nM
468 kinases [4] = biological target: 468 kinases (Homo sapiens, UniProt P33981); details: TTK; read-out: % Inhibition @ 100 nM
468 kinases [5] = biological target: 468 kinases (Homo sapiens, UniProt P54764); details: EPHA4; read-out: % Inhibition @ 100 nM
468 kinases (Homo sapiens, UniProt P54764), sequence (P54764 20-986 limits assumed): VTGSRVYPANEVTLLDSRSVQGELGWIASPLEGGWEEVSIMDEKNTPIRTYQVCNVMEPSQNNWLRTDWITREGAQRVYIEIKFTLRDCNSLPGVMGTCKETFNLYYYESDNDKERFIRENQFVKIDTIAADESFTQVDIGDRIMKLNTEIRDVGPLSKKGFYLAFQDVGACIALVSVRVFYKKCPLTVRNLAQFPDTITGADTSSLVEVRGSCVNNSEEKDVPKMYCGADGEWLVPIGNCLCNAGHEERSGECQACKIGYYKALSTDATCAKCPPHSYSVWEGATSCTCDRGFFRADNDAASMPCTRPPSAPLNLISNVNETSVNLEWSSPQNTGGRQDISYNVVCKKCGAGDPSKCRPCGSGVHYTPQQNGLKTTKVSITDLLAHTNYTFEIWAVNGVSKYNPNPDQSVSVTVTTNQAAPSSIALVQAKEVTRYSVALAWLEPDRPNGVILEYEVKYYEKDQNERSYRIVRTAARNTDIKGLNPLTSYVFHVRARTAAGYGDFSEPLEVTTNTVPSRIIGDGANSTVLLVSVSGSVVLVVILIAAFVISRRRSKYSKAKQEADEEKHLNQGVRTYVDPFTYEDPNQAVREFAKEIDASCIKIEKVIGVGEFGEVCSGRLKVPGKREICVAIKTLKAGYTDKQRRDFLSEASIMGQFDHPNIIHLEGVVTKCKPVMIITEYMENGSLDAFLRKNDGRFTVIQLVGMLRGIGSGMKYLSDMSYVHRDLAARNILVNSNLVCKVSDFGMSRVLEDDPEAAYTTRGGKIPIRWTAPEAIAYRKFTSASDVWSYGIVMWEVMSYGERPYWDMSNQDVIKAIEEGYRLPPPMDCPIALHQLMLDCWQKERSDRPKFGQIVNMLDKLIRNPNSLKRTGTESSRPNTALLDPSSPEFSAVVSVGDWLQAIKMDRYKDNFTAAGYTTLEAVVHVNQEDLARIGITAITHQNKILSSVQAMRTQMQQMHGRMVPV

468 kinases [6] = biological target: 468 kinases (Homo sapiens, UniProt Q56UN5); details: YSK4; read-out: % Inhibition @ 100 nM
468 kinases [7] = biological target: 468 kinases (Homo sapiens, UniProt P22607, G697C); details: FGFR3(G697C); read-out: % Inhibition @ 100 nM
468 kinases [8] = biological target: 468 kinases (Homo sapiens, UniProt Q9UPE1); details: SRPK3; read-out: % Inhibition @ 100 nM
468 kinases [9] = biological target: 468 kinases (Homo sapiens, UniProt O43353); details: RIPK2; read-out: % Inhibition @ 100 nM
468 kinases [10] = biological target: 468 kinases (Homo sapiens, UniProt Q02763); details: TIE2; read-out: % Inhibition @ 100 nM
468 kinases (Homo sapiens, UniProt Q02763), sequence (Q02763 23-1124 limits assumed): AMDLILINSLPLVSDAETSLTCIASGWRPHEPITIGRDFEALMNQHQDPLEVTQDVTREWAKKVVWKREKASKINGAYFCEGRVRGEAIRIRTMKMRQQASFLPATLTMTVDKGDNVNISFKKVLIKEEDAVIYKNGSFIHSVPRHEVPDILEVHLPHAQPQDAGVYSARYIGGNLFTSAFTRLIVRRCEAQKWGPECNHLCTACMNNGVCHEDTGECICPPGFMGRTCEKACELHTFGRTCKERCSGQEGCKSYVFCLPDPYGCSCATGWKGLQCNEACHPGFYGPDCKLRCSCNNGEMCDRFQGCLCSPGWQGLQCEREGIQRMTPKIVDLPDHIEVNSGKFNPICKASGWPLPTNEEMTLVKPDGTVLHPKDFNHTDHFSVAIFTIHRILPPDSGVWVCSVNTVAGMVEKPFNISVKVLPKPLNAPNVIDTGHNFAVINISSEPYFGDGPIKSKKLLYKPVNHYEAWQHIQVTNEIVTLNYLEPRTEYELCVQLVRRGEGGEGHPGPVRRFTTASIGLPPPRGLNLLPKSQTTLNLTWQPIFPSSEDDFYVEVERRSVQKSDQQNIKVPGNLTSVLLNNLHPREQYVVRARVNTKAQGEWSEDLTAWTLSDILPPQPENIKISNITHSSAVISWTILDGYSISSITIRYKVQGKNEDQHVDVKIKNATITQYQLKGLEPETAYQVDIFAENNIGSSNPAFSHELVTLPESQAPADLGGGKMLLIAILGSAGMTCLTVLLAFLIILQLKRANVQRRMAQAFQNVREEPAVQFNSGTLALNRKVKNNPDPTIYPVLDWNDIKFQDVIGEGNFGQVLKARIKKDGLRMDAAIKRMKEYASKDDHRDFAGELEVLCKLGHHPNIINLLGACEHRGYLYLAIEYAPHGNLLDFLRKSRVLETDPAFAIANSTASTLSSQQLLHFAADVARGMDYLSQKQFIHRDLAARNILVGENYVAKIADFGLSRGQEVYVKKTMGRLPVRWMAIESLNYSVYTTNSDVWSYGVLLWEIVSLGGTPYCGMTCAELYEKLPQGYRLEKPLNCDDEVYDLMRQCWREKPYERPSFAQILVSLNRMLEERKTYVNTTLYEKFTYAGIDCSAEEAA

468 kinases [11] = biological target: 468 kinases (Homo sapiens, UniProt Q13546); details: RIPK1; read-out: % Inhibition @ 100 nM
468 kinases [12] = biological target: 468 kinases (Homo sapiens, UniProt Q15835); details: GRK1; read-out: % Inhibition @ 100 nM
468 kinases [13] = biological target: 468 kinases (Homo sapiens, UniProt P00519); details: read-out: % Inhibition @ 100 nM
468 kinases [14] = biological target: 468 kinases (Homo sapiens, UniProt Q99755); details: PIP5K1A; read-out: % Inhibition @ 100 nM
468 kinases [15] = biological target: 468 kinases (Homo sapiens, UniProt P23458); details: JAK1(JH1domain-catalytic); read-out: % Inhibition @ 100 nM
468 kinases [16] = biological target: 468 kinases (Homo sapiens, UniProt Q96PY6); details: NEK1; read-out: % Inhibition @ 100 nM
468 kinases [17] = biological target: 468 kinases (Homo sapiens, UniProt Q15303); details: ERBB4; read-out: % Inhibition @ 100 nM
468 kinases (Homo sapiens, UniProt Q15303), sequence (Q15303 26-1308 limits assumed): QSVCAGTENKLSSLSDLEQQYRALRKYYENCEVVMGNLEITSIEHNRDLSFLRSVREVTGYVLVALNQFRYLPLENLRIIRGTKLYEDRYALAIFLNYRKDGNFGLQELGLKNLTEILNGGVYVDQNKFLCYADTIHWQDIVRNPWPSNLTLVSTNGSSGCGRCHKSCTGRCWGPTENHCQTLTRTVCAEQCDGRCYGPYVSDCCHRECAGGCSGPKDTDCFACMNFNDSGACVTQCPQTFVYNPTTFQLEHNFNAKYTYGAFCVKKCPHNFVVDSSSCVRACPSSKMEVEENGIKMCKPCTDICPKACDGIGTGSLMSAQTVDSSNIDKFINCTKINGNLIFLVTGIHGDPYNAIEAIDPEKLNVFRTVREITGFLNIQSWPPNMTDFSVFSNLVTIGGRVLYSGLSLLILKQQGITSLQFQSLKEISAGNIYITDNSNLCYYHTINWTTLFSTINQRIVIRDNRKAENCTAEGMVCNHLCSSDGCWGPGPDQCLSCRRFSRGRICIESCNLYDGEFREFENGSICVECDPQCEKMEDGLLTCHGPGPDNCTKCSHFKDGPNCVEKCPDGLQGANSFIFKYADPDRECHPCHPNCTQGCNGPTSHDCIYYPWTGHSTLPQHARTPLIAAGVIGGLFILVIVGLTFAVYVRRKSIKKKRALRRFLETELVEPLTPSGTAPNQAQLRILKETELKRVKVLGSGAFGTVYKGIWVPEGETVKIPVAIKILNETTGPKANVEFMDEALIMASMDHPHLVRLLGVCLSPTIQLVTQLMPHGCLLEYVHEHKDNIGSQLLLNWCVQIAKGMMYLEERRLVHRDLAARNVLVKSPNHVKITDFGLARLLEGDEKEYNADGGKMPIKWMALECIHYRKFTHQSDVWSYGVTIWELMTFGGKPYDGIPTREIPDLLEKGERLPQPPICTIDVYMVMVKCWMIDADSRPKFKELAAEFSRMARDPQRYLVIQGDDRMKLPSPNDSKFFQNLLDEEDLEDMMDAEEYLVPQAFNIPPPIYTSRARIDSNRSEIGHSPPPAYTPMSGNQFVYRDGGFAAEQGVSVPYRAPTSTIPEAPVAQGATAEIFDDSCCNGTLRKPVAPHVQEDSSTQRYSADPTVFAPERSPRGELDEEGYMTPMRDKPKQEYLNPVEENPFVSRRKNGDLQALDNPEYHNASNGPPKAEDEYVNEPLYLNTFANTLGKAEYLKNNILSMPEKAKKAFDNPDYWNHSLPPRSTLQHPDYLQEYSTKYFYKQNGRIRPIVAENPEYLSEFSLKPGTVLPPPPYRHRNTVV

468 kinases [18] = biological target: 468 kinases (Homo sapiens, UniProt P24723); details: PRKCH; read-out: % Inhibition @ 100 nM
468 kinases [19] = biological target: 468 kinases (Homo sapiens, UniProt P42336, H1047L); details: PIK3CA(H1047L); read-out: % Inhibition @ 100 nM
468 kinases [20] = biological target: 468 kinases (Homo sapiens, UniProt Q9Y463); details: DYRK1B; read-out: % Inhibition @ 100 nM
468 kinases [21] = biological target: 468 kinases (Homo sapiens, UniProt O76039); details: CDKL5; read-out: % Inhibition @ 100 nM
468 kinases [22] = biological target: 468 kinases (Homo sapiens, UniProt P10721); details: KIT; read-out: % Inhibition @ 100 nM
468 kinases (Homo sapiens, UniProt P10721), sequence (P10721 26-976 limits assumed): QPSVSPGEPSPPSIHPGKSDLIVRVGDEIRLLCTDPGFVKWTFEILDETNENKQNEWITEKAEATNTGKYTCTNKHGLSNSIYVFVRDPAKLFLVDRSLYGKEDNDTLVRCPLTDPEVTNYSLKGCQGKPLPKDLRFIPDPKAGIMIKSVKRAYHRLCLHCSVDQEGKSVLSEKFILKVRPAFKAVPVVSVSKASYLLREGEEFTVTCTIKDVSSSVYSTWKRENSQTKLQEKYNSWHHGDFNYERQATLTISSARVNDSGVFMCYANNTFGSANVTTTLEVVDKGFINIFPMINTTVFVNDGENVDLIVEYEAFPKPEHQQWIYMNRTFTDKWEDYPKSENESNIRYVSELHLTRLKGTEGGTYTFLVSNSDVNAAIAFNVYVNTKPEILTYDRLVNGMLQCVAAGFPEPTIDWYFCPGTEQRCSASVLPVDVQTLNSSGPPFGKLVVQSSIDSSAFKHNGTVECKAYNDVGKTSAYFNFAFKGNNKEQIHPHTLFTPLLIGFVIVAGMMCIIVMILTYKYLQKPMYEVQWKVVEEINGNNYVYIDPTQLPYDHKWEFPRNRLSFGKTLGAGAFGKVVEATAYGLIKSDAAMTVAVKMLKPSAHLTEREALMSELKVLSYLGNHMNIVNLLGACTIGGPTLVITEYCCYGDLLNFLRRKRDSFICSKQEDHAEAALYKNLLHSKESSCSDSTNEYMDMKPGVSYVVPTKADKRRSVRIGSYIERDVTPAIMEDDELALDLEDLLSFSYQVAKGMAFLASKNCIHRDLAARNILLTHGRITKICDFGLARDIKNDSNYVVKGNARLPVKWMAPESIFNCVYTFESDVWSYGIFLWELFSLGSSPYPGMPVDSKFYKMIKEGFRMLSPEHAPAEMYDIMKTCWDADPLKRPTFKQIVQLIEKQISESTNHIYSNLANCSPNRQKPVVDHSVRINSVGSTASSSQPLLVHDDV

468 kinases [23] = biological target: 468 kinases (Homo sapiens, UniProt O94804); details: LOK; read-out: % Inhibition @ 100 nM
468 kinases [24] = biological target: 468 kinases (Homo sapiens, UniProt Q96SB4); details: SRPK1; read-out: % Inhibition @ 100 nM
468 kinases [25] = biological target: 468 kinases (Homo sapiens, UniProt P78362); details: SRPK2; read-out: % Inhibition @ 100 nM
468 kinases [26] = biological target: 468 kinases (Homo sapiens, UniProt Q86Z02); details: HIPK1; read-out: % Inhibition @ 100 nM
468 kinases [27] = biological target: 468 kinases (Homo sapiens, UniProt Q96RR4); details: CAMKK2; read-out: % Inhibition @ 100 nM
468 kinases [28] = biological target: 468 kinases (Homo sapiens, UniProt Q9NQU5); details: PAK6; read-out: % Inhibition @ 100 nM
468 kinases [29] = biological target: 468 kinases (Homo sapiens, UniProt Q14289); details: PYK2; read-out: % Inhibition @ 100 nM
468 kinases [30] = biological target: 468 kinases (Homo sapiens, UniProt P35626); details: GRK3; read-out: % Inhibition @ 100 nM
468 kinases [31] = biological target: 468 kinases (Homo sapiens, UniProt P00519, H396P); details: read-out: % Inhibition @ 100 nM
468 kinases [32] = biological target: 468 kinases (Homo sapiens, UniProt O75716); details: STK16; read-out: % Inhibition @ 100 nM
468 kinases (Homo sapiens, UniProt O75716), sequence (O75716 2-305 limits assumed): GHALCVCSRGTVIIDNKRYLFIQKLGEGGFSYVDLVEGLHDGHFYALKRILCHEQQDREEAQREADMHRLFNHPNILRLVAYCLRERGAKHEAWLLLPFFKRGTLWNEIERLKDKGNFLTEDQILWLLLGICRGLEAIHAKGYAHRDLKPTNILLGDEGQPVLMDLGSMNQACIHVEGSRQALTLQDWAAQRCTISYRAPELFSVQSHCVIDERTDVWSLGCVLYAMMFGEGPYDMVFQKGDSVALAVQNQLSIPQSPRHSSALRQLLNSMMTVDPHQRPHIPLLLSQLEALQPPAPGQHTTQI

## CCN(CC)CCNC(=O)c1c(C)[nH]c(/C=C2\C(=O)Nc3ccc(CCO)cc32)c1C [Compound No. 10, (Z)—N-(2-(Diethylamino)ethyl)-5-((5-(2-hydroxyethyl)-2-oxoindolin-3-ylidene)methyl)-2,4-dimethyl-1H-pyrrole-3-carboxamide]
468 kinases [1]
  inhibition at 0.1 µM: 41%
468 kinases [2]
  inhibition at 0.1 µM: 12%
468 kinases [3]
  inhibition at 0.1 µM: 94.4%
468 kinases [4]
  inhibition at 0.1 µM: 0%
468 kinases [5]
  inhibition at 0.1 µM: 0%
468 kinases [6]
  inhibition at 0.1 µM: 90.4%
468 kinases [7]
  inhibition at 0.1 µM: 52%
468 kinases [8]
  inhibition at 0.1 µM: 88%
468 kinases [9]
  inhibition at 0.1 µM: 0%
468 kinases [10]
  inhibition at 0.1 µM: 0%
468 kinases [11]
  inhibition at 0.1 µM: 1%
468 kinases [12]
  inhibition at 0.1 µM: 39%
468 kinases [13]; ABL1 -nonphosphorylated
  inhibition at 0.1 µM: 54%
468 kinases [13]; ABL1 -phosphorylated
  inhibition at 0.1 µM: 44%
468 kinases [14]
  inhibition at 0.1 µM: 98%
468 kinases [15]
  inhibition at 0.1 µM: 0%
468 kinases [16]
  inhibition at 0.1 µM: 9%
468 kinases [17]
  inhibition at 0.1 µM: 15%
468 kinases [18]
  inhibition at 0.1 µM: 1%
468 kinases [19]
  inhibition at 0.1 µM: 16%
468 kinases [20]
  inhibition at 0.1 µM: 75%
468 kinases [21]
  inhibition at 0.1 µM: 0%
468 kinases [22]
  inhibition at 0.1 µM: 80%
468 kinases [23]
  inhibition at 0.1 µM: 3%
468 kinases [24]
  inhibition at 0.1 µM: 60%
468 kinases [25]
  inhibition at 0.1 µM: 66%
468 kinases [26]
  inhibition at 0.1 µM: 56%
468 kinases [27]
  inhibition at 0.1 µM: 29%
468 kinases [28]
  inhibition at 0.1 µM: 0%
468 kinases [29]
  inhibition at 0.1 µM: 31%
468 kinases [30]
  inhibition at 0.1 µM: 0%
468 kinases [31]; ABL1 (H396P)-nonphosphorylated
  inhibition at 0.1 µM: 57%
468 kinases [31]; ABL1 (H396P)-phosphorylated
  inhibition at 0.1 µM: 6%
468 kinases [32]
  inhibition at 0.1 µM: 0%

## CCN(CC)CCNC(=O)c1c(C)[nH]c(/C=C2\C(=O)Nc3ccc(CCC(N)=O)cc32)c1C [Compound No. 16, (Z)-5-((5-(3-Amino-3-oxopropyl)-2-oxoindolin-3-ylidene)methyl)-N-(2-(diethylamino)ethyl)-2,4-dimethyl-1H-pyrrole-3-carboxamide]
468 kinases [1]
  inhibition at 0.1 µM: 20%
468 kinases [2]
  inhibition at 0.1 µM: 3%
468 kinases [3]
  inhibition at 0.1 µM: 97.2%
468 kinases [4]
  inhibition at 0.1 µM: 8%
468 kinases [5]
  inhibition at 0.1 µM: 0%
468 kinases [6]
  inhibition at 0.1 µM: 98.2%
468 kinases [7]
  inhibition at 0.1 µM: 12%
468 kinases [8]
  inhibition at 0.1 µM: 77%
468 kinases [9]
  inhibition at 0.1 µM: 18%
468 kinases [10]
  inhibition at 0.1 µM: 0%
468 kinases [11]
  inhibition at 0.1 µM: 19%
468 kinases [12]
  inhibition at 0.1 µM: 37%
468 kinases [13]; ABL1 -nonphosphorylated
  inhibition at 0.1 µM: 36%
468 kinases [14]
  inhibition at 0.1 µM: 91.1%
468 kinases [15]
  inhibition at 0.1 µM: 10%
468 kinases [16]
  inhibition at 0.1 µM: 77%
468 kinases [17]
  inhibition at 0.1 µM: 6%
468 kinases [18]
  inhibition at 0.1 µM: 0%
468 kinases [19]
  inhibition at 0.1 µM: 15%
468 kinases [20]
  inhibition at 0.1 µM: 0%
468 kinases [21]
  inhibition at 0.1 µM: 5%
468 kinases [22]
  inhibition at 0.1 µM: 8%
468 kinases [23]
  inhibition at 0.1 µM: 0%
468 kinases [24]
  inhibition at 0.1 µM: 78%
468 kinases [25]
  inhibition at 0.1 µM: 51%
468 kinases [26]
  inhibition at 0.1 µM: 92.6%
468 kinases [27]
  inhibition at 0.1 µM: 49%
468 kinases [28]
  inhibition at 0.1 µM: 0%
468 kinases [29]
  inhibition at 0.1 µM: 7%
468 kinases [30]
  inhibition at 0.1 µM: 61%
468 kinases [31]; ABL1 (H396P)-nonphosphorylated
  inhibition at 0.1 µM: 66%
468 kinases [32]
  inhibition at 0.1 µM: 6%
